Bounds are passed on as bounds.

One test has as its target T1, wtERBB2 (Her2 WT) (Homo sapiens, UniProt P04626).
T1 construct: purchased Reaction Biology Kin-21-497
In words: HotSpot radiometric kinase activity assay, wtERBB2. Particulars: biochemical activity, 30 nM wtERBB2, 10 μM 33P-ATP, 2 hours. The method, then: (§1) The purpose of the wtERBB2, ERBB2-A775_G776insYVMA (ERBB2YVMA), wtEGFR biochemical assay was to evaluate the inhibition (% inhibition and IC50 values) of the small molecule inhibitors by using the “HotSpot” radiometric kinase activity assay. HotSpot assays monitor the production of kinase substrate by the radioactive gamma phosphate of adenosine triphosphate (33P-ATP) during biochemical reactions. HotSpot assays was performed in steps upon completion of the kinase reaction: deposition of a reaction mixture aliquot onto P81 ion exchange paper, extensive washing of the aforementioned P81 paper using phosphoric acid to remove unbound radiolabeled 33P-ATP from the P81 paper, and finally visualization and quantification of the dried P81 paper utilizing a phosphoimager. […] Typical reaction solutions (10 μL, final reaction volume) contained the following buffer conditions: 20 mM Hepes (pH 7.5), 10 mM MgCl2, 1 mM EGTA, 0.01% Brij35, 0.02 mg/mL BSA, 0.1 mM Na3VO4, 2 mM DTT, 1% DMSO. The assay was primed by preparing a fresh 0.2 mg/mL solution of pEY (Sigma Cat: P7244) substrate in the reaction buffer and supplementing that solution with […] of MnCl2 as substrate cofactor (Sigma Cat: M9522). The kinase of interest was then added to the solution at the appropriate concentration (30 nM wtERBB2 from, or 20 nM ERBB2YVMA, or 4 nM wtEGFR) and gently mixed prior to delivery of compound in 100% DMSO by acoustic dispensing (Beckman Echo550). Compound, Kinase, and substrate were allowed to incubate for 20 min at room temperature prior to the initiation of the reaction by addition of 33P-ATP (PerkinElmer Cat: NEG602, final conc 10 μM). […] IC50 determinations were made from a plot of kinase activity as a function of inhibitor concentration fit to the 4-parameter IC50 equation with the enzyme concentration held constant using GraphPad Prism (San Diego).

For test [1], the target named is T2, ERBB2-A775_G776insYVMA (ERBB2YVMA) (Homo sapiens, UniProt P04626, INS775YVMA).
T2 construct: purchased SignalChem E27-13BG
In words: HotSpot radiometric kinase activity assay, ERBB2YVMA. The note with it: biochemical activity, 20 nM ERBB2YVMA, 10 μM 33P-ATP, 2 hours, read-out: HER2 - YVMA IC50. The method, then: as §1

In the next test the target is T3, wtEGFR (Homo sapiens, UniProt P00533).
T3 construct: purchased Invitrogen PR7295B
In words: HotSpot radiometric kinase activity assay, wtEGFR. The note with it: biochemical activity, 4 nM wtEGFR, 10 μM 33P-ATP, 2 hours, read-out: EGFR WT IC50. How it is done:
as §1

In another test the target is BaF3_HER2WT cells (Homo sapiens, UniProt P04626). Kind of test: Cell growth inhibition assay (CellTiterGlo), BaF3_HER2WT. In kind it is cell-based. Particulars: 3-day treatment, CellTiterGlo, read-out: Cell growth inhibition activity, HER2 WT.
The target of the next test is BaF3_HER2YVMA cells (Homo sapiens, UniProt P04626, DUP772-775, cells depend on it). In words: Cell growth inhibition assay (CellTiterGlo), BaF3_HER2YVMA. In kind it is cell-based. The note with it: 3-day treatment, CellTiterGlo, read-out: Cell growth inhibition activity, HER2 - YVMA.
For a further test, the target named is BaF3_EGFRWT cells (Homo sapiens, UniProt P00533). In words: Cell growth inhibition assay (CellTiterGlo), BaF3_EGFRWT. Format: cell-based. The note with it: 3-day treatment, CellTiterGlo, read-out: Cell growth inhibition activity, EGFR WT.
BaF3_EGFRWT cells, sequence (P00533 whole entry, change not shown): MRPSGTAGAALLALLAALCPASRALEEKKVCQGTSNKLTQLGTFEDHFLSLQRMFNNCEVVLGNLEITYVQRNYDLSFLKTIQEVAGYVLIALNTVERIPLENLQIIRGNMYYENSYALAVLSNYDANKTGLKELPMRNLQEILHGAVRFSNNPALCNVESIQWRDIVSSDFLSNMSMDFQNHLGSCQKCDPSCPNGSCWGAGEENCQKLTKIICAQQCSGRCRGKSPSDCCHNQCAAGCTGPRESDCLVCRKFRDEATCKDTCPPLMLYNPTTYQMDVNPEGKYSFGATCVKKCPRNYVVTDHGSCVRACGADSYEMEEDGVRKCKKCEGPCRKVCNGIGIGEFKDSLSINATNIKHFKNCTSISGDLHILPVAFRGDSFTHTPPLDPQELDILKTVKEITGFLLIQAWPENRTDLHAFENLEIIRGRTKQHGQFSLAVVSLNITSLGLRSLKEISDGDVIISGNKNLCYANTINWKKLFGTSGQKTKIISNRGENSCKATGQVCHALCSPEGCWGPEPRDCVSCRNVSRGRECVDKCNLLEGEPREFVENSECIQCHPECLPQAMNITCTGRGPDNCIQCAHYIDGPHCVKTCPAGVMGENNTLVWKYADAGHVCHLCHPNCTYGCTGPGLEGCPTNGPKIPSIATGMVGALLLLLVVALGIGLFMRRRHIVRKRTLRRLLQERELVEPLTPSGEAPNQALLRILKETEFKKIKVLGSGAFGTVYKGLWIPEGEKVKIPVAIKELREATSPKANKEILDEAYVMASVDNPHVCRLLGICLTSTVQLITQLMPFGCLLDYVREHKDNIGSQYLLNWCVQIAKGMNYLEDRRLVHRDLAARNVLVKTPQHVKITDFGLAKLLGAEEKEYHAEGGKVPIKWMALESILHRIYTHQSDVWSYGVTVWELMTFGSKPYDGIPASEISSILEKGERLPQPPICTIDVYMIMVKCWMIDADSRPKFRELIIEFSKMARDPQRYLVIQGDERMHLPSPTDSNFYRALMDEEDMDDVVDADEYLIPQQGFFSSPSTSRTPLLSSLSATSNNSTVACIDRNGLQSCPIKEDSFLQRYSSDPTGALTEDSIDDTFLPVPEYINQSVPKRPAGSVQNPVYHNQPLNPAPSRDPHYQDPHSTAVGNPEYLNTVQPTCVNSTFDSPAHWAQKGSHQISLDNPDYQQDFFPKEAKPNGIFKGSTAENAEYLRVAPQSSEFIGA

T2 sequence (P04626 with tags, fused parts or gaps INS775YVMA limits assumed): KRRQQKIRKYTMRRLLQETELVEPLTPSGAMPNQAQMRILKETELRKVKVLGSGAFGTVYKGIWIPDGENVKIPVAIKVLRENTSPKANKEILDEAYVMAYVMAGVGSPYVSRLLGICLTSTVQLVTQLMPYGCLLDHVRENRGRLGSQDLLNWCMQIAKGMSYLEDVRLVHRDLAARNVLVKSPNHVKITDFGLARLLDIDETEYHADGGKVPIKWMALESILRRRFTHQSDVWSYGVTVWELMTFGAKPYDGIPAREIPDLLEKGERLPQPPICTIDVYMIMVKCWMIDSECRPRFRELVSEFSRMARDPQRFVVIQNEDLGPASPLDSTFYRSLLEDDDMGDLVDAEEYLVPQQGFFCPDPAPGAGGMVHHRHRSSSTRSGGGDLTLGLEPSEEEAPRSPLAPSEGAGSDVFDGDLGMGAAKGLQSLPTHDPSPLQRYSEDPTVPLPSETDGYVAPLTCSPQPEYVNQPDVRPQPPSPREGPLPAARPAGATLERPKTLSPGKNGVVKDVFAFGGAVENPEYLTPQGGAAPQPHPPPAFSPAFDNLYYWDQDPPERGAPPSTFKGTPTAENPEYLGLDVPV
T1 sequence (P04626 23-1255): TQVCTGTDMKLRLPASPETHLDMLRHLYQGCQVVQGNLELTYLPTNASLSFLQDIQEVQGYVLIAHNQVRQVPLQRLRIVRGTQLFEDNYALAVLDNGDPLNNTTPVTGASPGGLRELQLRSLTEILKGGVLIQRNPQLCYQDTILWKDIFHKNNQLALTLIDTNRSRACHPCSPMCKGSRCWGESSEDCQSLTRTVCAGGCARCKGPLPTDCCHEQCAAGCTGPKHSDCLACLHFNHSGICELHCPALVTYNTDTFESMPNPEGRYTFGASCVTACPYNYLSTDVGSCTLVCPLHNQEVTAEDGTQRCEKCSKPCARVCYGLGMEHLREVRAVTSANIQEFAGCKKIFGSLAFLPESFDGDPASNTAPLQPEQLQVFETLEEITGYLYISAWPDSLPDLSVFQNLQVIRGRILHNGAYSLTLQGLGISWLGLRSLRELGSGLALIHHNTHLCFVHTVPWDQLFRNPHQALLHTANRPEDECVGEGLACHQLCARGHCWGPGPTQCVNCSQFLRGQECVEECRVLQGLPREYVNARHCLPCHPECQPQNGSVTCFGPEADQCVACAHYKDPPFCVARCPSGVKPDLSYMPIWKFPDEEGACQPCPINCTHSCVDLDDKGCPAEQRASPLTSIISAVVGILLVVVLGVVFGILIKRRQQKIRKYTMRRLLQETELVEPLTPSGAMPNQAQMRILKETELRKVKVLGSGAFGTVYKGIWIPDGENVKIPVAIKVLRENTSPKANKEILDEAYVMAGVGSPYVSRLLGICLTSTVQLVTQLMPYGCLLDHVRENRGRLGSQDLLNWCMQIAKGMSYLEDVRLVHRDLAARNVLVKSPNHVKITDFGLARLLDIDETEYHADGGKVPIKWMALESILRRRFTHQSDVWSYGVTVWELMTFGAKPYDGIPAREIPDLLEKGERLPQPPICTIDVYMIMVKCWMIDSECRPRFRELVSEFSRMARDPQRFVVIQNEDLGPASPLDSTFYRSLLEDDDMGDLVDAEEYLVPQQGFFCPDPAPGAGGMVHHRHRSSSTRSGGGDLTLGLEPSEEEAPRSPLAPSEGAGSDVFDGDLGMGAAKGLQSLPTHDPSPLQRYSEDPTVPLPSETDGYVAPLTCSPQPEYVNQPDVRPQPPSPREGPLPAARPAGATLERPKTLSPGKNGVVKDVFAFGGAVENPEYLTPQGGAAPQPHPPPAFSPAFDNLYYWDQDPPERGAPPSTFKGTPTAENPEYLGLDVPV
T3 sequence (P00533 25-1210): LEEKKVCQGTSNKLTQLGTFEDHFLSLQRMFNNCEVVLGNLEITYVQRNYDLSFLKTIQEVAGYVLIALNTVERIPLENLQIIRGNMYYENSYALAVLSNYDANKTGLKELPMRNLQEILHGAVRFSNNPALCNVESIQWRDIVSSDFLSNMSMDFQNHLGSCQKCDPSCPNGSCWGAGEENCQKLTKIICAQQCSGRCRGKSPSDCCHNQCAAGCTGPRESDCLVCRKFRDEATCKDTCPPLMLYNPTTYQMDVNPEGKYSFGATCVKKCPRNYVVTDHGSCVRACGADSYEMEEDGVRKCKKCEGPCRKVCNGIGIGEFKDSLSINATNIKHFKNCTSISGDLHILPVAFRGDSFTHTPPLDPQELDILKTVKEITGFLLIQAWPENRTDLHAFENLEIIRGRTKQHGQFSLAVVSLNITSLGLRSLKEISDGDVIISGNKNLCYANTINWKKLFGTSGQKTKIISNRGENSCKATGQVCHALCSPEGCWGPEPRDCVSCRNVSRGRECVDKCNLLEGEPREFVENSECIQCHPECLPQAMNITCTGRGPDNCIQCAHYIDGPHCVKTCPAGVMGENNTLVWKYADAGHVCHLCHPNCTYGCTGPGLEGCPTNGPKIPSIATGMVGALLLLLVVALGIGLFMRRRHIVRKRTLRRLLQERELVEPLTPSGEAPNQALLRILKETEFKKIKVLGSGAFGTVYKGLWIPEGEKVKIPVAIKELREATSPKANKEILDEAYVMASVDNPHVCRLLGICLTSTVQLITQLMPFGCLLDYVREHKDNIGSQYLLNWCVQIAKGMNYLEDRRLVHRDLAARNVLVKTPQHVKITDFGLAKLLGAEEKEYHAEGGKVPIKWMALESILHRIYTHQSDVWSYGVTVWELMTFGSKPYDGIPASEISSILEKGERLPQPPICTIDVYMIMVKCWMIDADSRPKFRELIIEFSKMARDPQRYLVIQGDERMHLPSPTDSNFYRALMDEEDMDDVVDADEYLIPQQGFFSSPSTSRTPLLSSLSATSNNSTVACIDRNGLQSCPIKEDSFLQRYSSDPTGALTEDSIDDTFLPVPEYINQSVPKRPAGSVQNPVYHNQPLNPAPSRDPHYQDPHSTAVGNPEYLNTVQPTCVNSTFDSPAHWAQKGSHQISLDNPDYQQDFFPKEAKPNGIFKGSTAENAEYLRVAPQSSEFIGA

For `C=CC(=O)NC1CCN(C(=O)c2ccn3ncnc(Nc4ccc(Oc5ccn6ncnc6c5)c(C)c4)c23)C1` (stereo not drawn) [Example 4, N-(1-(4-((4-([1,2,4]triazolo[1,5-a]pyridin-7-yloxy)-3-methylphenyl)amino)pyrrolo[2,1-f][1,2,4]triazine-5-carbonyl)pyrrolidin-3-yl)acrylamide], the half-maximal inhibitory concentration (IC50) against wtERBB2 (Her2 WT) was under 200 nM; in test [1], under 200 nM; on wtEGFR it was 1500 to 5000 nM. For the same compound, the values for the GI50 at BaF3_HER2WT cells, on BaF3_HER2YVMA cells and at BaF3_EGFRWT cells were under 200 nM, under 200 nM and 1500 to 5000 nM, respectively.
For `Cc1cc(Nc2c(C#N)cnn3ccc(C4CN(C(=O)/C=C/CN(C)C)C4)c23)ccc1Oc1ccn2ncnc2c1` [Example 86, (E)-4-((4-([1,2,4]triazolo[1,5-a]pyridin-7-yloxy)-3-methylphenyl)amino)-5-(1-(4-(dimethylamino)-but-2-enoyl)azetidin-3-yl)pyrrolo[1,2-b]pyridazine-3-carbonitrile], the 50% inhibitory concentration (IC50) (at wtERBB2 (Her2 WT); in test [1]; on wtEGFR) was 1500 to 5000 nM in each case. Moreover, the GI50 is 1500 to 5000 nM at BaF3_HER2WT cells, over 5000 nM at BaF3_HER2YVMA cells and 1500 to 5000 nM on BaF3_EGFRWT cells.
On to `Cc1cc(Nc2ncnn3cnc(C4CCN(C(=O)/C=C/CN(C)C)CC4)c23)ccc1Oc1ccn2ncnc2c1` [Example 88, (E)-1-(4-(4-((4-([1,2,4]triazolo[1,5-a]pyridin-7-yloxy)-3-methylphenyl)amino)imidazo[5,1-f][1,2,4]triazin-5-yl)piperidin-1-yl)-4-(dimethylamino)but-2-en-1-one], for which the values for the IC50 (against wtERBB2 (Her2 WT); in test [1]; at wtEGFR) were 200 to 500 nM, 500 to 1500 nM and 1500 to 5000 nM, respectively. Also, the GI50 is 500 to 1500 nM on BaF3_HER2WT cells, 1500 to 5000 nM at BaF3_HER2YVMA cells and 1500 to 5000 nM on BaF3_EGFRWT cells.
Turning to `CN(C)C/C=C/C(=O)N1CC(c2ccn3ncnc(Nc4cnc(Oc5cccc(C(F)(F)F)c5)c(Cl)c4)c23)C1` [Example 90, (E)-1-(3-(4-((5-chloro-6-(3-(trifluoromethyl)phenoxy)pyridin-3-yl)amino)pyrrolo[2,1-f][1,2,4]triazin-5-yl)azetidin-1-yl)-4-(dimethylamino)but-2-en-1-one], the IC50 (against wtERBB2 (Her2 WT); in test [1]; on wtEGFR) was 1500 to 5000 nM in each case. Also, the GI50 on BaF3_HER2WT cells, at BaF3_HER2YVMA cells and on BaF3_EGFRWT cells was 1500 to 5000 nM throughout.
Regarding `Cc1cc(Nc2ncnn3ccc(C4CCCN(C(=O)/C=C/CN(C)C)C4)c23)ccc1Oc1ccn2ncnc2c1` (stereo not drawn) [Example 96, (E)-1-(3-(4-((4-([1,2,4]triazolo[1,5-a]pyridin-7-yloxy)-3-methylphenyl)amino)-pyrrolo-[2,1-f][1,2,4]-triazin-5-yl)piperidin-1-yl)-4-(dimethylamino)but-2-en-1-one], the half-inhibitory concentration (IC50) in test [1] is under 200 nM; on wtEGFR, 500 to 1500 nM. The GI50 was under 200 nM at BaF3_HER2WT cells, 500 to 1500 nM at BaF3_HER2YVMA cells and 1500 to 5000 nM on BaF3_EGFRWT cells.
On to `Cc1cc(Nc2ncnn3ccc(C4CN(C(=O)/C=C/CN5CCC5)C4)c23)ccc1Oc1ccn2ncnc2c1` [Example 102, (E)-1-(3-(4-((4-([1,2,4]triazolo[1,5-a]pyridin-7-yloxy)-3-methylphenyl)amino)pyrrolo[2,1-f][1,2,4]triazin-5-yl)azetidin-1-yl)-4-(azetidin-1-yl)but-2-en-1-one], for which the 50% inhibitory concentration (IC50) in test [1] was under 200 nM; on wtEGFR it was 1500 to 5000 nM. The GI50 on BaF3_HER2WT cells was in the range of 500 to 1500 nM; on BaF3_HER2YVMA cells it was 1500 to 5000 nM; on BaF3_EGFRWT cells it was 1500 to 5000 nM.
As for `Cc1cc(Nc2ncnn3ccc(-c4cnn(CCNC(=O)/C=C/CN(C)C)c4)c23)ccc1Oc1ccn2ncnc2c1` [Example 103, (E)-N-(2-(4-(4-((4-([1,2,4]triazolo[1,5-a]pyridin-7-yloxy)-3-methylphenyl)amino)pyrrolo[2,1-f][1,2,4]triazin-5-yl)-1H-pyrazol-1-yl)ethyl)-4-(dimethylamino)but-2-enamide], the results for the IC50 (in test [1]; at wtEGFR) were 200 to 500 nM and 1500 to 5000 nM, respectively. In addition, the GI50 on BaF3_HER2WT cells, at BaF3_HER2YVMA cells and at BaF3_EGFRWT cells was 1500 to 5000 nM in each case.
In the case of `C=CC(=O)N1CCC2(C1)CN(c1ccn3ncnc(Nc4ccc(Oc5ccn6ncnc6c5)c(C)c4)c13)C2` [Example 155, 1-(2-{4-[(3-methyl-4-{[1,2,4]triazolo[1,5-a]pyridin-7-yloxy}phenyl)amino]pyrrolo[2,1-f][1,2,4]triazin-5-yl}-2,6-diazaspiro[3.4]octan-6-yl)prop-2-en-1-one], the half-inhibitory concentration (IC50) is under 200 nM in test [1] and 1500 to 5000 nM at wtEGFR. In addition, the GI50 on BaF3_HER2WT cells was under 200 nM; on BaF3_HER2YVMA cells it was 200 to 500 nM; on BaF3_EGFRWT cells, 1500 to 5000 nM.
For the compound `Cc1cc(Nc2ncnn3ccc(N4CC5(CCN(C(=O)/C=C/CN(C)C)C5)C4)c23)ccc1Oc1ccn2ncnc2c1` [Example 156, (2E)-4-(dimethylamino)-1-(2-{4-[(3-methyl-4-{[1,2,4]triazolo[1,5-a]pyridin-7-yloxy}phenyl)amino]pyrrolo[2,1-f][1,2,4]triazin-5-yl}-2,6-diazaspiro[3.4]octan-6-yl)but-2-en-1-one], the IC50 in test [1] was under 200 nM; on wtEGFR it was 500 to 1500 nM. Besides, the GI50 lay in the range of 200 to 500 nM at BaF3_HER2WT cells, 1500 to 5000 nM on BaF3_HER2YVMA cells and 1500 to 5000 nM at BaF3_EGFRWT cells.
Turning to `Cc1cc(Nc2ncnn3ccc(C(=O)NCCCN(C)C)c23)ccc1Oc1ccn2ncnc2c1` [Example 178, 4-((4-([1,2,4]triazolo[1,5-a]pyridin-7-yloxy)-3-methylphenyl)amino)-N-(3-(dimethylamino)-propyl)pyrrolo[2,1-f][1,2,4]triazine-5-carboxamide], the concentration for half-maximal inhibition (IC50) in test [1] is under 200 nM; at wtEGFR, 500 to 1500 nM. Besides, the figures for the GI50 on BaF3_HER2WT cells, on BaF3_HER2YVMA cells and at BaF3_EGFRWT cells were 200 to 500 nM, 1500 to 5000 nM and over 5000 nM, respectively.

(Values after US20240132521A1, “COMPOUNDS AND METHODS FOR MODULATING HER2” (Iambic Therapeutics, Inc., priority 2022, published 2024).)
